In paper PMC4880976, “Pharmacologic rationale for the NK1R antagonist, aprepitant as adjunctive therapy in HIV” (Journal of Translational Medicine, 2016):

Tests used:
[1] = Protein binding by ultrafiltration in human and rhesus macaque plasma and FBS; type: in vitro ADME; conditions: three experiments
Description: These experiments were conducted to assess the linkage between in vitro and in vivo exposure targets in order to more accurately project clinical dose requirements for aprepitant. Protein binding was assessed via ultrafiltration and detection of aprepitant in various biofluids was conducted via LC–MS/MS.
Ultrafiltration units (CorningR Spin-X UF; MWCO 10 K) and filtrate collection tubes were obtained from Corning (Tewksbury, MA). Control human plasma was obtained by centrifugation of blood obtained from CHOP blood bank. Stock solutions of aprepitant in methanol were added to human plasma (1 %, v/v) to provide plasma samples at a nominal concentration of 10 μg/mL. This was further diluted with human plasma to provide 5, 2 and 0.5 μg/mL solutions. Similarly, aprepitant at above four concentration were also prepared in 10 % FBS in DMEM or 10 % FBS in water. Samples were incubated at 37 °C for 30 min to ensure equilibrium was established. Following incubation, an aliquot of sample was removed for determination of the drug concentration post incubation. Triplicate 500 μL aliquots of the samples were added to the sample reservoir of the UF unit with filtrate collection tubes. All ultrafiltration units were centrifuged at 13,000 rpm (15,000×g) for 15 min at 4 °C. […] Internal standard solution (500 μL) was added to each sample analyzed by the validated LC–MS/MS method described above. […]

SIVmac251 = test: SIV infectivity study, plasma viral load; type: in vivo, rhesus macaques (Macaca mulatta)
Description: For infectivity studies, eight male rhesus macaques were used. Animals were infected intravenously with 50 ng p27 of SIV. Following infection four animals were treated with aprepitant once daily dosing of 125 mg aprepitant administered orally for a year and four infected animals were left untreated. Aprepitant (commercial capsule contents) was mixed and co-administered with various food preparations to ensure dosing compliance. Food preparations included peanut butter, marshmallow cream and honey, disguised in non-citrus fruit. While formal stability and delivery experiments were not conducted, pilot bioavailability studies confirmed the robustness of aprepitant exposures following food co-administration. The improved bioavailability with food-based dosing in conjunction with oral aprepitant is consistent with preclinical experiments which project simulated exposures based on the commercial nanosized aprepitant formulation. In this evaluation, in silico model predictions were similar to observed in vivo pharmacokinetic data in the fed state; other studies have shown the benefit of complexation strategies to enhance aprepitant solubility/dissolution [30, 31].
Blood was collected for PK sampling on days 1, 7 and 14 and trough samples were collected prior to dosing on days 3, 5, 7, 11 and 13. […] Videotaped recordings were analyzed using Observer XT® (Noldus IT). […]

anxiety-related behavior = test: Anxiety-related behavior in SIV infected rhesus macaque (video recordings); type: in vivo; conditions: 125 mg/day
Description: Blood was collected for PK sampling on days 1, 7 and 14 and trough samples were collected prior to dosing on days 3, 5, 7, 11 and 13. […] Videotaped recordings were analyzed using Observer XT® (Noldus IT). Animals were sacrificed and necropsied after 1 year.
Fig. 4 Anxiety-related behavior* time course in SIV infected rhesus macaque receiving aprepitant at 125 mg/day or placebo. *Anxiety-related behavior was calculated based on the following parameters: body shake, hypervigilant scanning, self-licking and self-grooming, scratching, unresponsive inactivity and yawning.

[2] = system: CD163 cleavage in human monocytes; test: sCD163 release from human monocytes, ELISA; type: cell-based; conditions: aprepitant 10 μM 30 min before SP 5 μM 60 min, p = 0.004
Description: sCD163 was measured by ELISA (Trillium Diagnostics, Brewer, Maine, USA) according to manufacturer’s recommendations.
Fig. 7 SP induces cleavage of CD163 in monocytes. sCD163 was measured by ELISA in the supernatant of freshly isolated human monocytes treated with SP and aprepitant as indicated. a Time course of cells treated with varying doses of SP as indicated. *p < 0.001 control versus 5 and 10 μM of SP. b Cells were pre-incubated with aprepitant (10 μM) for 30 min and then treated with SP (5 μM) for 60 min. *p < 0.001 SP versus control, p = 0.004 SP versus SP + aprepitant. Results are presented as mean ± SD from three independent experiments

C[C@@H](O[C@H]1OCCN(Cc2n[nH]c(=O)[nH]2)[C@H]1c1ccc(F)cc1)c1cc(C(F)(F)F)cc(C(F)(F)F)c1 [aprepitant]
binding to human and rhesus macaque plasma and FBS [1]: 99.79–99.95%
reduction of viral load (SIVmac251; 125 mg once daily oral for 12 months, SIV-infected rhesus, weeks 12-52): approximately tenfold
reduction in plasma levels of viral RNA versus non-treated controls (SIVmac251; 125 mg/day oral, 3–12 month observation period): 1 log
anxiety-related behavior versus control (anxiety-related behavior; after first 4 weeks (weeks 12-20)): significant reduction of anxiety
anxiety-related behavior versus control (anxiety-related behavior; first 4 weeks after infection): no significant difference
effect on SP induced sCD163 release [2]: inhibited
